Test results from patent US9034921B2, “Diphenylmethane derivatives as SGLT2 inhibitors” (GREEN CROSS CORPORATION, priority 2011, dated 2015).

What follows are compounds tested against human SGLT2 (Homo sapiens (Human), UniProt P31639) (assay: Inhibitory effects on human SGLT2 activities (14C-AMG uptake, sodium-dependent glucose transport assay)). Details: CHO cells stably expressing hSGLT2, 37° C., 2 h, single determinations.
Type: cell-based
Outline: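 CHO cells stably expressing hSGLT2 were preincubated 10 min at 37 °C in choline (Na+-free) buffer, then exposed 2 h at 37 °C to compound in Na+ uptake buffer with 8 μM 14C-AMG and 1 mM unlabeled AMG. Radioactivity was scintillation counted; IC50 came from nonlinear regression.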

Chain of human SGLT2 (P31639 whole entry): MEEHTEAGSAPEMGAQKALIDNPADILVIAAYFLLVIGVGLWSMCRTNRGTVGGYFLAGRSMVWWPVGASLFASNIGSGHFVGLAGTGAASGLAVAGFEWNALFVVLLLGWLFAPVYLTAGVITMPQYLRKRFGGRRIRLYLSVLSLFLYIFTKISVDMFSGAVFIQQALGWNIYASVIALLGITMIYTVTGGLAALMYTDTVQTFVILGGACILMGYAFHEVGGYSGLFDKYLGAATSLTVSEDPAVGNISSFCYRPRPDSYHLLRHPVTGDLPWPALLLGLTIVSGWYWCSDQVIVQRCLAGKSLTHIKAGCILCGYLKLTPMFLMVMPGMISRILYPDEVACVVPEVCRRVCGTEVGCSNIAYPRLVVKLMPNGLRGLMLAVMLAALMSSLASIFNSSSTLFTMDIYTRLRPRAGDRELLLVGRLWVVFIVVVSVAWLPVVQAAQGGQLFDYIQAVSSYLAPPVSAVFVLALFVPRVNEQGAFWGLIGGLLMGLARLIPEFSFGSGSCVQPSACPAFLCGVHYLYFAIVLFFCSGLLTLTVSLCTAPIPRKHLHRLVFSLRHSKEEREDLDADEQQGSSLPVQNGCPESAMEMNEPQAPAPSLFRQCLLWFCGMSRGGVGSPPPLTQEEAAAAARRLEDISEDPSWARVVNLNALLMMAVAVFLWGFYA

SMILES | IC50 [nM]
COc1cc(Cl)c(Cc2ccc3c(c2)OCCO3)cc1[C@@H]1S[C@H](CO)[C@@H](O)[C@H](O)[C@H]1O [Example E048, (2S,3R,4R,5S,6R)-2-(4-Chloro-5-((2,3-dihydrobenzo[b][1,4]dioxin-6-yl)methyl)-2-methoxyphenyl)-6-(hydroxymethyl)tetrahydro-2H-thiopyran-3,4,5-triol] | 2.62
N#Cc1ccc(Cc2cc([C@@H]3O[C@H](CO)[C@@H](O)[C@H](O)[C@H]3O)c3c(c2Cl)OCC3)cc1 [Example E186, 4-((7-Chloro-4-((2S,3R,4R,5S,6R)-3,4,5-trihydroxy-6-(hydroxymethyl)tetrahydro-2H-pyran-2-yl)-2,3-dihydrobenzofuran-6-yl)methyl)benzonitrile] | 6.06
CCOc1ccc(Cc2cc([C@@H]3O[C@H](CO)[C@@H](O)[C@H](O)[C@H]3O)c3sccc3c2Cl)cc1 [Example E046, (2S,3R,4R,5S,6R)-2-(4-Chloro-5-(4-ethoxybenzyl)benzo[b]thiophen-7-yl)-6-(hydroxymethyl)tetrahydro-2H-pyran-3,4,5-triol] | 275
COc1ccc(Cc2cc([C@@H]3O[C@H](CO)[C@@H](O)[C@H](O)[C@H]3O)c3c(c2Cl)CC(C)S3)cc1 (stereo partly drawn) [Example E142, (2S,3R,4R,5S,6R)-2-(4-Chloro-5-(4-methoxybenzyl)-2-methyl-2,3-dihydrobenzo[b]thiophen-7-yl)-6-(hydroxymethyl)tetrahydro-2H-pyran-3,4,5-triol] | 1.09
Cc1c(Br)cc([C@@H]2O[C@H](CO)[C@@H](O)[C@H](O)[C@H]2O)cc1Cc1ccc2c(c1)OCCO2 [Example E085, (2S,3R,4R,5S,6R)-2-(3-Bromo-5-((2,3-dihydrobenzo[b][1,4]dioxin-6-yl)methyl)-4-methylphenyl)-6-(hydroxymethyl)-tetrahydro-2H-pyran-3,4,5-triol] | 1.82
OC[C@H]1S[C@@H](c2ccc(Cl)c(Cc3ccc4c(c3)OCCO4)c2)[C@H](O)[C@@H](O)[C@@H]1O [Example E047, (2S,3R,4R,5S,6R)-2-(4-Chloro-3-((2,3-dihydrobenzo[b][1,4]dioxin-6-yl)methyl)phenyl)-6-(hydroxymethyl)tetrahydro-2H-thiopyran-3,4,5-triol] | 4.17
C#CC(C)(O)c1ccc(Cc2cc([C@@H]3O[C@H](CO)[C@@H](O)[C@H](O)[C@H]3O)c3c(c2Cl)OCC3)cc1 (stereo partly drawn) [Example E179, (2S,3R,4R,5S,6R)-2-(7-Chloro-6-(4-(2-hydroxybut-3-yn-2-yl)benzyl)-2,3-dihydrobenzofuran-4-yl)-6-(hydroxymethyl)tetrahydro-2H-pyran-3,4,5-triol] | 5.2
COc1ccc(Cc2cc([C@@H]3O[C@H](OC)[C@@H](O)[C@H](O)[C@H]3O)c3c(c2Br)CCC3)cc1 [Example E097, (2S,3R,4R,5S,6S)-2-(7-Bromo-6-(4-methoxybenzyl)-2,3-dihydro-1H-inden-4-yl)-6-methoxy-tetrahydro-2H-pyran-3,4,5-triol] | 3.83
COc1ccc(Cc2cc([C@@H]3O[C@H](CO)[C@@H](O)[C@H](O)[C@H]3O)c3c(c2Cl)C(C)CO3)cc1 (stereo partly drawn) [Example E216, (2S,3R,4R,5S,6R)-2-(4-Chloro-5-(4-methoxybenzyl)-3-methyl-2,3-dihydrobenzofuran-7-yl)-6-(hydroxymethyl)tetrahydro-2H-pyran-3,4,5-triol] | 1.22
OC[C@H]1O[C@@H](c2cc(Cc3ccc(OC(F)(F)F)cc3)c(Cl)c3c2CCO3)[C@H](O)[C@@H](O)[C@@H]1O [Example E200, (2S,3R,4R,5S,6R)-2-(7-Chloro-6-(4-(trifluoromethoxy)benzyl)-2,3-dihydrobenzofuran-4-yl)-6-(hydroxymethyl)tetrahydro-2H-pyran-3,4,5-triol] | 1.08
COc1ccc(Cc2cc([C@@H]3O[C@H](CO)[C@@H](O)[C@H](O)[C@H]3O)c3c(c2Cl)C(=O)CO3)cc1 [Example E195, 4-Chloro-5-(4-methoxybenzyl)-7-((2S,3R,4R,5S,6R)-3,4,5-trihydroxy-6-(hydroxymethyl)tetrahydro-2H-pyran-2-yl)benzofuran-3(2H)-one] | 35.1
CCCOc1ccc(Cc2cc([C@@H]3O[C@H](CO)[C@@H](O)[C@H](O)[C@H]3O)c3c(c2Cl)OCC3)cc1 [Example E194, (2S,3R,4R,5S,6R)-2-(7-Chloro-6-(4-propoxybenzyl)-2,3-dihydrobenzofuran-4-yl)-6-(hydroxymethyl)tetrahydro-2H-pyran-3,4,5-triol] | 1.22
CCc1ccc(Cc2cc([C@@H]3O[C@H](CO)[C@@H](O)[C@H](O)[C@H]3O)c3c(c2Cl)CC(C)S3)cc1 (stereo partly drawn) [Example E144, (2S,3R,4R,5S,6R)-2-(4-Chloro-5-(4-ethylbenzyl)-2-methyl-2,3-dihydrobenzo[b]thiophen-7-yl)-6-(hydroxymethyl)tetrahydro-2H-pyran-3,4,5-triol] | 0.976
OC[C@H]1O[C@@H](c2cc(Cc3ccc(OCCOC4CC4)cc3)c(Cl)c3c2CCO3)[C@H](O)[C@@H](O)[C@@H]1O [Example E198, (2S,3R,4R,5S,6R)-2-(7-Chloro-6-(4-(2-cyclopropoxyethoxy)benzyl)-2,3-dihydrobenzofuran-4-yl)-6-(hydroxymethyl)tetrahydro-2H-pyran-3,4,5-triol] | 2.02
OC[C@H]1O[C@@H](c2cc(Cc3ccc4c(c3)OCCO4)c(Cl)c3c2OCCC3)[C@H](O)[C@@H](O)[C@@H]1O [Example E044, (2S,3R,4R,5S,6R)-2-(5-Chloro-6-((2,3-dihydrobenzo[b][1,4]dioxin-6-yl)methyl)chroman-8-yl)-6-(hydroxymethyl)tetrahydro-2H-pyran-3,4,5-triol] | 1.65
OC[C@H]1O[C@@H](c2cc(Cc3ccc(OC4CCCC4)cc3)c(Cl)c3c2CCO3)[C@H](O)[C@@H](O)[C@@H]1O [Example E232, (2S,3R,4R,5S,6R)-2-(7-Chloro-6-(4-(cyclopentyloxy)benzyl)-2,3-dihydrobenzofuran-4-yl)-6-(hydroxymethyl)-tetrahydro-2H-pyran-3,4,5-triol] | 1.6

The remaining lines, values ahead:

IC50 [nM] | SMILES
2.39 | OC[C@H]1O[C@@H](c2ccc(Cl)c(Cc3ccc4c(cnn4Cc4ccccc4)c3)c2)[C@H](O)[C@@H](O)[C@@H]1O [Example E033, (2S,3R,4R,5S,6R)-2-(3-((1-Benzyl-1H-indazol-5-yl)methyl)-4-chlorophenyl)-6-(hydroxymethyl)tetrahydro-2H-pyran-3,4,5-triol]
18.1 | OC[C@H]1O[C@@H](c2cc(Cc3ccc(C4CC4)cc3)c(Cl)c3ccoc23)[C@H](O)[C@@H](O)[C@@H]1O [Example E173, (2S,3R,4R,5S,6R)-2-(4-Chloro-5-(4-cyclopropylbenzyl)benzofuran-7-yl)-6-(hydroxymethyl)tetrahydro-2H-pyran-3,4,5-triol]
53.9 | CO[C@@H]1O[C@@H](c2ccc(Cl)c(Cc3ccc4c(c3)OCCO4)c2)[C@H](O)[C@@H](O)[C@@H]1O [Example E094, (2S,3R,4R,5S,6R)-2-(4-Chloro-3-((2,3-dihydrobenzo[b][1,4]dioxin-6-yl)methyl)phenyl)-6-methoxy-tetrahydro-2H-pyran-3,4,5-triol]
2.99 | OC[C@H]1O[C@@H](c2ccc(Cl)c(Cc3ccc4c(c3)CCCC4)c2)[C@H](O)[C@@H](O)[C@@H]1O [Example E060, (2S,3R,4R,5S,6R)-2-(4-Chloro-3-((5,6,7,8-tetrahydronaphthalen-2-yl)methyl)phenyl)-6-(hydroxymethyl)-tetrahydro-2H-pyran-3,4,5-triol]
2.98 | Cn1ccc2cc(Cc3cc([C@@H]4O[C@H](CO)[C@@H](O)[C@H](O)[C@H]4O)ccc3Cl)ccc21 [Example E034, (2S,3R,4R,5S,6R)-2-(4-Chloro-3-((1-methyl-1H-indol-5-yl)methyl)phenyl)-6-(hydroxymethyl)tetrahydro-2H-pyran-3,4,5-triol]
9.47 | OC[C@H]1O[C@@H](c2ccc(Cl)c(Cc3ccc4c(c3)COCO4)c2)[C@H](O)[C@@H](O)[C@@H]1O [Example E068, (2S,3R,4R,5S,6R)-2-(3-((4H-Benzo[d][1,3]dioxin-6-yl)methyl)-4-chlorophenyl)-6-(hydroxymethyl)-tetrahydro-2H-pyran-3,4,5-triol]
1.09 | OC[C@H]1O[C@@H](c2cc(Cc3ccc(C4CC4)cc3)c(Cl)c3c2OCC3)[C@H](O)[C@@H](O)[C@@H]1O [Example E120, (2S,3R,4R,5S,6R)-2-(4-Chloro-5-(4-cyclopropylbenzyl)-2,3-dihydrobenzofuran-7-yl)-6-(hydroxymethyl)tetrahydro-2H-pyran-3,4,5-triol]
1.88 | OC[C@H]1O[C@@H](c2cc(Cc3ccc(SC4CC4)cc3)c(Cl)c3c2CCO3)[C@H](O)[C@@H](O)[C@@H]1O [Example E206, (2S,3R,4R,5S,6R)-2-(7-Chloro-6-(4-(cyclopropylthio)benzyl)-2,3-dihydrobenzofuran-4-yl)-6-(hydroxymethyl)tetrahydro-2H-pyran-3,4,5-triol]
1.76 | CCn1cc2cc(Cc3cc([C@@H]4O[C@H](CO)[C@@H](O)[C@H](O)[C@H]4O)ccc3Cl)ccc2n1 [Example E038, (2S,3R,4R,5S,6R)-2-(4-Chloro-3-((2-ethyl-2H-indazol-5-yl)methyl)phenyl)-6-(hydroxymethyl)tetrahydro-2H-pyran-3,4,5-triol]
1.72 | Cn1ncc2cc(Cc3cc([C@@H]4O[C@H](CO)[C@@H](O)[C@H](O)[C@H]4O)ccc3Cl)ccc21 [Example E035, (2S,3R,4R,5S,6R)-2-(4-Chloro-3-((1-methyl-1H-indazol-5-yl)methyl)phenyl)-6-(hydroxymethyl)tetrahydro-2H-pyran-3,4,5-triol]
9.08 | OC[C@H]1O[C@@H](c2ccc(Cl)c(Cc3ccc(N4CCOCC4)cc3)c2)[C@H](O)[C@@H](O)[C@@H]1O [Example E211, (2S,3R,4R,5S,6R)-2-(4-Chloro-3-(4-morpholinobenzyl)phenyl)-6-(hydroxymethyl)tetrahydro-2H-pyran-3,4,5-triol]
8.65 | CO[C@H]1O[C@@H](c2ccc(Cl)c(Cc3ccc4c(c3)OCCO4)c2)[C@H](O)[C@@H](O)[C@@H]1O [Example E092, (2S,3R,4R,5S,6S)-2-(4-Chloro-3-((2,3-dihydrobenzo[b][1,4]dioxin-6-yl)methyl)phenyl)-6-methoxy-tetrahydro-2H-pyran-3,4,5-triol]
